Here are results for 10 compounds from US8791264B2 (Purdue Pharma L.P., priority 2006, dated 2014).

Molecules are shown by their SMILES.

In assay [1] the target is T1, N-type calcium channel (NTCC) (Homo sapiens, UniProt Q00975).
T1 construct: host or cells: IMR32 cells differentiated with dibutyryl cAMP and bromodeoxyuridine
In words: FLIPR calcium mobilization assay for N-type calcium channel. The class given is cell-based. The settings on record: calcium mobilization in vitro assay; differentiated IMR32 cells. In a few lines:
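Differentiated IMR32 cells (8 days, dibutyryl cAMP and BrdU) loaded with 3 μM Fluo-4 during 90 mM KCl pre-stimulation, with compound at about 846 pM to 17 μM plus 5 μM nitrendipine. After washes in compound, FLIPR read basal fluorescence 315 s, then 45 s after KCl addition (final 90 mM).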

Assay [2] has as its target T2, recombinant rat L-type calcium channel (LTCC) subunits (α1c, α2δ, and β1) (Rattus norvegicus, UniProt P22002).
T2 construct: expressed in transfected cells
In words: FLIPR calcium mobilization assay for L-type calcium channel. Type of assay: cell-based. The settings on record: calcium mobilization in vitro assay; HEK293 cells expressing rat LTCC. The essentials:
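HEK293 cells stably expressing rat LTCC (α1c, α2δ, β1), Fluo-4 loaded in pH 7.4 buffer with 5 mM CaCl2. Compound (about 846 pM to 17 μM final) applied 5 minutes before depolarization with 90 mM KCl final; FLIPR fluorescence recorded throughout.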

T1 sequence (Q00975 whole entry): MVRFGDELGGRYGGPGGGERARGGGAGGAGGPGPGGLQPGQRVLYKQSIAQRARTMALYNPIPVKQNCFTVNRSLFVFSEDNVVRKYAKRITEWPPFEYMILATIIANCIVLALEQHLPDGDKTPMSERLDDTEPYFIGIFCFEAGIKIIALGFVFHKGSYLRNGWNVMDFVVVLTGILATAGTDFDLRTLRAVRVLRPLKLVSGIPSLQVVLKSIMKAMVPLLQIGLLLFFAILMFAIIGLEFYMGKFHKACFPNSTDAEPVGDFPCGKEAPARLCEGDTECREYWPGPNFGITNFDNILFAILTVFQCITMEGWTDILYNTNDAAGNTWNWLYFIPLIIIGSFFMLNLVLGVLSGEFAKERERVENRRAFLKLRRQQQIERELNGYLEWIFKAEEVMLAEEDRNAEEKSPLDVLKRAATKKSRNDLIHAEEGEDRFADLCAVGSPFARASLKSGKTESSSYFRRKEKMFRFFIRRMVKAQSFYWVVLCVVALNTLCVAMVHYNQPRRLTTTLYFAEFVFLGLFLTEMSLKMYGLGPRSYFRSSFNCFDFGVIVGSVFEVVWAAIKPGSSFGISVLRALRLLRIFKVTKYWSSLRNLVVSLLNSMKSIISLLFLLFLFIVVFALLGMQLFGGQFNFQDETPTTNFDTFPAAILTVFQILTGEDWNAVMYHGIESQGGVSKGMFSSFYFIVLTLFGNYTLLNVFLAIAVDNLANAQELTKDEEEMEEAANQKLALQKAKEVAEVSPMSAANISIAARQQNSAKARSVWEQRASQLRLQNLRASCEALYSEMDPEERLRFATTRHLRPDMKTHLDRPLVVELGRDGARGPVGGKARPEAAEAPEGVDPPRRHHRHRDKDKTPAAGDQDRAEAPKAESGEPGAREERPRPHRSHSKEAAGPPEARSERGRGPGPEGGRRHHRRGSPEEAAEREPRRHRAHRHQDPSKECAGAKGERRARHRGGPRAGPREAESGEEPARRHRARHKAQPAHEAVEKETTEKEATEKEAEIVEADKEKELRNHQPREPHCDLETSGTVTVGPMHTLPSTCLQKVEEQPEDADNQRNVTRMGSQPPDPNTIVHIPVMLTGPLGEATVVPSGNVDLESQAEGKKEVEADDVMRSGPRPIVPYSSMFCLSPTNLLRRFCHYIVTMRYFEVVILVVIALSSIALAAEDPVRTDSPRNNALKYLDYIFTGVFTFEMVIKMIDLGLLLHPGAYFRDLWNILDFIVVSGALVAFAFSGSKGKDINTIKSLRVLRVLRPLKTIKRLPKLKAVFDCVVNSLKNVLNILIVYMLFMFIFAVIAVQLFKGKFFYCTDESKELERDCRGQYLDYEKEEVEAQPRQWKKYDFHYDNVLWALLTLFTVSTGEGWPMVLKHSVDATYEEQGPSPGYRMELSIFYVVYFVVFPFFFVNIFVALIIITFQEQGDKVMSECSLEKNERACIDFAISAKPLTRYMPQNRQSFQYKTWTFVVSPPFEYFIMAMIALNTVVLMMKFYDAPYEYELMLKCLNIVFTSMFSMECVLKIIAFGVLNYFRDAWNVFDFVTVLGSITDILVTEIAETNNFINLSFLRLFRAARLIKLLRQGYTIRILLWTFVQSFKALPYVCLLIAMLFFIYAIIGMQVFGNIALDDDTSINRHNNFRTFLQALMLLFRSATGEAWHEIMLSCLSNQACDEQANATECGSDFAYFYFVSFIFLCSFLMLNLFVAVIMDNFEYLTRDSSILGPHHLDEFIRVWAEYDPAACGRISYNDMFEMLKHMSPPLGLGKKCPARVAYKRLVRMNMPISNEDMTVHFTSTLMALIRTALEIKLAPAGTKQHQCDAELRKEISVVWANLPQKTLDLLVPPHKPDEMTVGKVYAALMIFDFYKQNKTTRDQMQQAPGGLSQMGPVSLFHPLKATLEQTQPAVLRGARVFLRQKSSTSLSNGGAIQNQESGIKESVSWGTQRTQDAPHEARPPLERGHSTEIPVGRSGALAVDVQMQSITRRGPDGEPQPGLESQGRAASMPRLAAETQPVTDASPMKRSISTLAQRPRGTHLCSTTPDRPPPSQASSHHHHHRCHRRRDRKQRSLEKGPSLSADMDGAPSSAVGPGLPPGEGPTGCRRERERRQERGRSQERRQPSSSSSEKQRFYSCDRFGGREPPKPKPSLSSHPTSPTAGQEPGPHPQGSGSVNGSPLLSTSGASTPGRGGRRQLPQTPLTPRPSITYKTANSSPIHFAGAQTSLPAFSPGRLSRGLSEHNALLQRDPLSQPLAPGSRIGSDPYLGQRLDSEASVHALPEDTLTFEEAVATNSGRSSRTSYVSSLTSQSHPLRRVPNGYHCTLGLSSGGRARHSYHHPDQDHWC
T1 sequence (P54289 25-956 partner limits assumed): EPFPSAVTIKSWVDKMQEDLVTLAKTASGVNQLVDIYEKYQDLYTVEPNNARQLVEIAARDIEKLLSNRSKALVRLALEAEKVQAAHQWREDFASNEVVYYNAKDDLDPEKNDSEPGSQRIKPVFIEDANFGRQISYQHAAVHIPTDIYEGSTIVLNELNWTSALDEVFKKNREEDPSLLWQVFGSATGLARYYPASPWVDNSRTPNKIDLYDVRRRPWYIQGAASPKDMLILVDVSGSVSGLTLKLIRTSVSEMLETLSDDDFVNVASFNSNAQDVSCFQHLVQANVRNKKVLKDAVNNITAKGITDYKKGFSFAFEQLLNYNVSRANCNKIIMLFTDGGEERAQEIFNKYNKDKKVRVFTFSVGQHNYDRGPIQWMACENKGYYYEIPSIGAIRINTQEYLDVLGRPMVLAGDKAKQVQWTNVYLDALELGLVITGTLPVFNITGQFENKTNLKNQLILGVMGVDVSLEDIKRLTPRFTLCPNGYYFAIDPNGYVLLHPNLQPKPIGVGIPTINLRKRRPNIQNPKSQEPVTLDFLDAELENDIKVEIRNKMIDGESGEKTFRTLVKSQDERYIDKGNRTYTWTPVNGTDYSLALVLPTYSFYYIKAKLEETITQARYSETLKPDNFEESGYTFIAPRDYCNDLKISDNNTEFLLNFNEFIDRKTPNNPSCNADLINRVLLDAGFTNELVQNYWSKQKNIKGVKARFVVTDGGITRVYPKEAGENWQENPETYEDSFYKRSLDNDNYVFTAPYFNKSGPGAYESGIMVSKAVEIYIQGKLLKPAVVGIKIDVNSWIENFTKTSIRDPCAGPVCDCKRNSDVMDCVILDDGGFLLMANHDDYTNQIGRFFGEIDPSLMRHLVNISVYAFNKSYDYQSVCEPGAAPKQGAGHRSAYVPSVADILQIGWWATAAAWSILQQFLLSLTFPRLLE
T1 sequence (P54289 957-1103 partner limits assumed): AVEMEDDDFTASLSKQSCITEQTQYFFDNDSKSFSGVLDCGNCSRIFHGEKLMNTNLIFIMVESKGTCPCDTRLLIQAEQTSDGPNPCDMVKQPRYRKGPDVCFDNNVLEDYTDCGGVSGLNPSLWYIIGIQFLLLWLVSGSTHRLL
T1 sequence (P54284 whole entry partner): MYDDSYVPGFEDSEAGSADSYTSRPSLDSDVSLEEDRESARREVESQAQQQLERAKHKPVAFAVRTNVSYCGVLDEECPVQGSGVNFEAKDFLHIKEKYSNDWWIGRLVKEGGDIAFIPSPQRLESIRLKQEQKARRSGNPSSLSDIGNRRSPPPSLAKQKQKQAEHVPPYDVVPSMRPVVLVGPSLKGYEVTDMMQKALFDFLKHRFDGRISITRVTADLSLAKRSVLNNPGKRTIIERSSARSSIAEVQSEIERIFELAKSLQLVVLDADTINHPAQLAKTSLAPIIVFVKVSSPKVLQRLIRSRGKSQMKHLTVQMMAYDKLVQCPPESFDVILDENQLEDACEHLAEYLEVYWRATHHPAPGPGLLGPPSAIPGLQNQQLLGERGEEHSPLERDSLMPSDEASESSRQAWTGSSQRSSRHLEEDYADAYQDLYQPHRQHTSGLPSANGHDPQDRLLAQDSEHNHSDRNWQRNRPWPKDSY

In the case of `CC(C)CC(CC(=O)N1CCC(N(C(C)C)S(=O)(=O)c2cccc(C(F)(F)F)c2)CC1)NCCOCc1ccccc1` (centres unmarked) [N-{1-[3-(2-benzyloxy-ethylamino)-5-methyl-hexanoyl]-piperidin-4-yl}-N-isopropyl-3-trifluoromethyl-benzenesulfonamide], the IC50 in assay [1] was determined as 220 nM; in assay [2], 4480 nM.
On the same counts, the results for `CC(C)N(C1CCN(C(=O)CCNc2ccc(F)cc2Cl)CC1)S(=O)(=O)c1cccc(C(F)(F)F)c1` [N-{1-[3-(2-chloro-4-fluoro-phenylamino)-propionyl]-piperidin-4-yl}-N-isopropyl-3-trifluoromethyl-benzenesulfonamide] are 820 nM and greater than 20000 nM.
On the same counts, the results for `CC(C)N(C1CCN(C(=O)CCNc2ccccc2F)CC1)S(=O)(=O)c1cccc(C(F)(F)F)c1` [N-{1-[3-(2-fluoro-phenylamino)-propionyl]-piperidin-4-yl}-N-isopropyl-3-trifluoromethyl-benzenesulfonamide] are 550 nM and 9650 nM.
The corresponding values for `CC(C)N(C1CCN(C(=O)CCNc2ccc(F)c(F)c2)CC1)S(=O)(=O)c1cccc(C(F)(F)F)c1` [N-{1-[3-(3,4-difluoro-phenylamino)-propionyl]-piperidin-4-yl}-N-isopropyl-3-trifluoromethyl-benzenesulfonamide] are 390 nM and greater than 20000 nM.
On to `COc1cc(NCCC(=O)N2CCC(N(C(C)C)S(=O)(=O)c3cccc(C(F)(F)F)c3)CC2)cc(OC)c1` [N-{1-[3-(3,5-dimethoxy-phenylamino)-propionyl]-piperidin-4-yl}-N-isopropyl-3-trifluoromethyl-benzenesulfonamide], for which the IC50 in assay [1] was 820 nM; in assay [2], greater than 20000 nM.
For the compound `CC(C)N(C1CCN(C(=O)CCNc2cccc(Cl)c2)CC1)S(=O)(=O)c1cccc(C(F)(F)F)c1` [N-{1-[3-(3-chloro-phenylamino)-propionyl]-piperidin-4-yl}-N-isopropyl-3-trifluoromethyl-benzenesulfonamide], the IC50 in assay [1] was 900 nM; in assay [2], greater than 20000 nM.
On the same counts, the results for `CC(C)N(C1CCN(C(=O)CCNc2ccc(Cl)cc2)CC1)S(=O)(=O)c1cccc(C(F)(F)F)c1` [N-{1-[3-(4-chloro-phenylamino)-propionyl]-piperidin-4-yl}-N-isopropyl-3-trifluoromethyl-benzenesulfonamide] are 930 nM and greater than 20000 nM.
Regarding `COc1cc(NCCC(=O)N2CCC(N(C(C)C)S(=O)(=O)c3cccc(C(F)(F)F)c3)CC2)ccc1F` [N-{1-[3-(4-fluoro-3-methoxy-phenylamino)-propionyl]-piperidin-4-yl}-N-isopropyl-3-trifluoromethyl-benzenesulfonamide], the IC50 was 620 nM in assay [1] and greater than 20000 nM in assay [2].
As to `CC(C)N(C1CCN(C(=O)CCNc2ccc(F)cc2)CC1)S(=O)(=O)c1cccc(C(F)(F)F)c1` [N-{1-[3-(4-fluoro-phenylamino)-propionyl]-piperidin-4-yl}-N-isopropyl-3-trifluoromethyl-benzenesulfonamide], the IC50 worked out at 530 nM in assay [1] and 3220 nM in assay [2].
In the case of `CC(C)N(C1CCN(C(=O)CCN(C)Cc2ccccc2)CC1)S(=O)(=O)c1cccc(C(F)(F)F)c1` [N-{1-[3-(benzyl-methyl-amino)-propionyl]-piperidin-4-yl}-N-isopropyl-3-trifluoromethyl-benzenesulfonamide], the results for the IC50 in assay [1] and in assay [2] were 420 nM and 7480 nM, respectively.
